# Source: ChEMBL document CHEMBL1201862, “PubChem BioAssay data set” (2004)
# Active and inactive are the calls of the source.
# Legend:
# [1] = target: T1, Neuropeptide Y receptor type 2 (Homo sapiens, UniProt P49146); experiment: IC50 for human NPY-Y2 blockade – cell-based, counter-screen for NPY-Y1 antagonist project, dose response (AID 1278); assay type: functional
# [2] = system: HEK293; experiment: cells; assay type: functional, cell-based; details: Homo sapiens
# [3] = system: HEK293; experiment: inhibition of NOD1-driven NF-kB reporter – cell-based, luminescence, uHTS, primary screen (AID 1578); assay type: functional; details: Homo sapiens
# [4] = NIH-3T3 fibroblast cytotoxicity, dose response, cytotoxicity control, cell-based, fluorescence, Alamar Blue, secondary assay (AID 2327); assay type: functional;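 also: NIH-3T3 mouse fibroblasts cultured with fluconazole at 8 µg/mL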
# [5] = target: Nucleotide-binding oligomerization domain-containing protein 2 (Homo sapiens, UniProt Q9HC29); experiment: inhibition of NOD2-driven NF-kB reporter – cell-based, luminescence, uHTS, HEK293 (AID 1566); assay type: functional
# [6] = system: HEK293; experiment: cells; assay type: functional, cell-based; details: Homo sapiens; remark: listed apart in the source
# [7] = target: T2, Neuropeptide Y receptor type 1 (Homo sapiens, UniProt P25929); experiment: IC50 of human NPY-Y1 blockers – cell-based, dose response (AID 1277); assay type: functional
# [8] = system: HEK293; experiment: cells; assay type: functional, cell-based; details: Homo sapiens; remark: listed apart in the source
# [9] = system: HEK293; experiment: NOD2 signaling inhibitors in MDP-stimulated cells, cell-based, uHTS, luminescence (AID 2001); assay type: functional; details: Homo sapiens
# [10] = target: Peroxisome proliferator-activated receptor gamma/Nuclear receptor coactivator 1 (Homo sapiens, UniProt P37231); assay type: functional;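 also: agonist potency as compounds enhance coactivator SRC-1 recruitment to PPARgamma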
# [11] = target: Peroxisome proliferator-activated receptor gamma/Nuclear receptor coactivator 3 (Homo sapiens, UniProt P37231); assay type: functional;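 also: agonist potency for raising coactivator recruitment to the receptor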
# [12] = target: Peroxisome proliferator-activated receptor gamma/Nuclear receptor coactivator 2 (Homo sapiens, UniProt P37231); assay type: functional;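 also: agonist potency for raising coactivator recruitment to the receptor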
# [13] = system: Streptococcus; experiment: GAS UMAA2166 growth inhibition – luminescence, BacTiterGlo, counter-screen for streptokinase expression inhibitor project, dose response (AID 1915); assay type: functional, organism-based;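 also: potency for reduction of bacterial viability or growth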
# [14] = target: T3, Protein RecA (Mycobacterium tuberculosis, UniProt P9WHJ3); experiment: Fluorescence Cell-Free Homogeneous Dose Retest to Identify Inhibitors of RecA-Intein Splicing Activity. [Related pubchem assays (depositor defined):AID2097, AID2223, AID489010, AID492950]; assay type: functional
# T3 sequence (P9WHJ3 whole entry): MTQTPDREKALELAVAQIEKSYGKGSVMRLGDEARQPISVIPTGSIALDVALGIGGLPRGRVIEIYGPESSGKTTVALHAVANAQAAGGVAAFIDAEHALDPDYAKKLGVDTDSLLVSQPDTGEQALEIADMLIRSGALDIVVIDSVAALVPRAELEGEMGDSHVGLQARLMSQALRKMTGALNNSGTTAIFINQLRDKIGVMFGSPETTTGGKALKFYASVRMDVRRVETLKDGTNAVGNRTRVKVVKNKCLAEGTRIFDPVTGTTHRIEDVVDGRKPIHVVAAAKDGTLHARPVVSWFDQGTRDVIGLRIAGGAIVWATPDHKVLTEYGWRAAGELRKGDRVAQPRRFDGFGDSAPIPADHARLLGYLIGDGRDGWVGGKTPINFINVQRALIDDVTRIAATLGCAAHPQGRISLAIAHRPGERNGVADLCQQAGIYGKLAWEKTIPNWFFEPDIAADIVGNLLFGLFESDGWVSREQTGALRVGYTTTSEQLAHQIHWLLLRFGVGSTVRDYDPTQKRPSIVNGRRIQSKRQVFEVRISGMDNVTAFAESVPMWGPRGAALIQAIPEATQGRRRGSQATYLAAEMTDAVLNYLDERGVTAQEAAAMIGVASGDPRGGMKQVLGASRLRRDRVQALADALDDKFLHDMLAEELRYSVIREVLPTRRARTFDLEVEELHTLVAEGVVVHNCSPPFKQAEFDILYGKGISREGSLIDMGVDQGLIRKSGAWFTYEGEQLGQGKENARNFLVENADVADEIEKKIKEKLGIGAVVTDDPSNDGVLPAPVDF
# [15] = system: Streptococcus sp. 'group A'; experiment: Streptococcus pyogenes SK(-)GAS viability under kanamycin – luminescence, BacTiterGlo, confirmation, counter-screen for streptokinase expression inhibitor project, dose response (AID 1900); assay type: functional, organism-based
# [16] = target: T4, Streptokinase A (Streptococcus pyogenes serotype M1, UniProt P10520); experiment: viability-normalized secreted streptokinase activity reduction – plasminogen activation absorbance, OD405, dose response (AID 1914); assay type: functional, Streptococcus pyogenes M1 GAS;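 also: secreted streptokinase activity via plasminogen activation per viability signal from cell pellet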
# T4 sequence (P10520 whole entry): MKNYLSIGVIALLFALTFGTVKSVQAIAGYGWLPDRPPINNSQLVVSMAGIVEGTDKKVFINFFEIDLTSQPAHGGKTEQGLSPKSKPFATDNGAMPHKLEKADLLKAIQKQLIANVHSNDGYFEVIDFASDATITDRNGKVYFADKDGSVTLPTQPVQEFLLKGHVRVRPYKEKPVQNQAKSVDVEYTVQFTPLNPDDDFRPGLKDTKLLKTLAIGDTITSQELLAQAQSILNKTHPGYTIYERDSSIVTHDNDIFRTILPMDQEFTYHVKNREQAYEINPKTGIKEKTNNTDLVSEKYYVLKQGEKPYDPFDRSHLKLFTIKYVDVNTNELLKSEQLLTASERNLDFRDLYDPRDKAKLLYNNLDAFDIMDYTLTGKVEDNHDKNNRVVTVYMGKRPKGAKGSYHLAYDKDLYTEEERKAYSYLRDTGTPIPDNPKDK
# [17] = target: T5, Replicative DNA helicase DnaB (Mycobacterium tuberculosis, UniProt P9WMR3); experiment: DnaB intein splicing inhibitors, dose response, biochemical, cell-free fluorescence (AID 449749); assay type: functional
# T5 sequence (P9WMR3 whole entry): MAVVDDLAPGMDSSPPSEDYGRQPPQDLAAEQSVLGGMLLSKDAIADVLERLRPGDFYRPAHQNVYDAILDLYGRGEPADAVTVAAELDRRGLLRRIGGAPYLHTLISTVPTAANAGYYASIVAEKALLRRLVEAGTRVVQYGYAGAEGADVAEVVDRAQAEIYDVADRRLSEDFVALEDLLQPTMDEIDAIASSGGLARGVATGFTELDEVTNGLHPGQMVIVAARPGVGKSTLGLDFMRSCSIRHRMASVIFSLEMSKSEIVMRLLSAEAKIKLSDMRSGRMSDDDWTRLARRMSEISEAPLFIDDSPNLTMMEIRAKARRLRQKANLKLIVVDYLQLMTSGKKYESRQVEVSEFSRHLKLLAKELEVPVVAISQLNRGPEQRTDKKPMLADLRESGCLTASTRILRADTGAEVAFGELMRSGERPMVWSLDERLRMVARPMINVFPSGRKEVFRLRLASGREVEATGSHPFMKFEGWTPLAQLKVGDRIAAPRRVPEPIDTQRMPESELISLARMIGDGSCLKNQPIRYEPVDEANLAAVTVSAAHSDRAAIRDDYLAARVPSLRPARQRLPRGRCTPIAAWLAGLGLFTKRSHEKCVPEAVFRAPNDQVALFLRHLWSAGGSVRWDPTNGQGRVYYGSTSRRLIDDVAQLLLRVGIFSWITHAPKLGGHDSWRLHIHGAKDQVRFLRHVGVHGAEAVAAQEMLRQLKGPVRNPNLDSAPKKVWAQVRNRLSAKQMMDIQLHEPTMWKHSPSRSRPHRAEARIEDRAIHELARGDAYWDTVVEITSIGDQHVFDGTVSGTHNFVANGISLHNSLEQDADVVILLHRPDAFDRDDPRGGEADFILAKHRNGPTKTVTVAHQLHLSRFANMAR
# [18] = mitochondrial function rescue without frataxin homolog – Friedreich's ataxia, plus single-dose screen, dose response (AID 1465); assay type: functional;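 also: yeast depleted of Yfh1p frataxin homolog grown on glycerol needing respiration; WST-1 tetrazolium dye reduction as measure of cellular dehydrogenase metabolic activity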
# [19] = microbe, parasite or virus in culture; assay type: functional; details: Mycobacterium tuberculosis
# [20] = A High Throughput Confirmatory Assay used to Identify Novel Compounds that Inhibit Mycobacterium Tuberculosis in the absence of Glycerol.; assay type: functional
# [21] = Luminescence Cell-Based Dose Confirmation HTS to Identify Inhibitors of Platelet Dense Granule Release. [Related pubchem assays: 1663 (Primary HTS), 1678 (Summary of Project)]; assay type: functional
# [22] = target: Luciferin 4-monooxygenase (Photinus pyralis, UniProt P08659); experiment: inhibition of purified Photinus pyralis luciferase – biochemical, luminescence, dose response (AID 1891)
# [23] = target: T1, Neuropeptide Y receptor type 2; assay type: functional, cell-based
# [24] = target: T2, Neuropeptide Y receptor type 1; assay type: functional
# T1 sequence (P49146 whole entry): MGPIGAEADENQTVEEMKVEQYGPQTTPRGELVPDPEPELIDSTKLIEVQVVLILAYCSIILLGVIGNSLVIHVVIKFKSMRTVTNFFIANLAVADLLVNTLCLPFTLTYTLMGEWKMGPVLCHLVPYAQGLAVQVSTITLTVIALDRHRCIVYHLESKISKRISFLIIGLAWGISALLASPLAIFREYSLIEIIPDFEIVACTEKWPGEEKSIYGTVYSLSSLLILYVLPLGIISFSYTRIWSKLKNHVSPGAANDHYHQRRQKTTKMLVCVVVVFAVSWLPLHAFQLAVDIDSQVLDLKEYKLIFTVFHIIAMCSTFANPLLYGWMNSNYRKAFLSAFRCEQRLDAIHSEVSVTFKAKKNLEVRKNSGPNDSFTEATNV
# T2 sequence (P25929 whole entry): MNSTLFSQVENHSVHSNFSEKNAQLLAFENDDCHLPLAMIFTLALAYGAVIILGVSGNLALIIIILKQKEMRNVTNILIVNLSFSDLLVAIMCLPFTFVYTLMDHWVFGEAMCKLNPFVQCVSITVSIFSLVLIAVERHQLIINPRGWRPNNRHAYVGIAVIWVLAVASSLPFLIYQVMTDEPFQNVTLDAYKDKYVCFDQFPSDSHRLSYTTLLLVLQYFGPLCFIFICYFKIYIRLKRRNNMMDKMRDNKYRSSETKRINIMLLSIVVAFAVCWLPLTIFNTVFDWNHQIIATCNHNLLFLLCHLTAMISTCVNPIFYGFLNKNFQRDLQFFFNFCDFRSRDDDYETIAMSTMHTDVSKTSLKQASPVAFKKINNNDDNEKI
# Sequence of Luciferin 4-monooxygenase (P08659 whole entry): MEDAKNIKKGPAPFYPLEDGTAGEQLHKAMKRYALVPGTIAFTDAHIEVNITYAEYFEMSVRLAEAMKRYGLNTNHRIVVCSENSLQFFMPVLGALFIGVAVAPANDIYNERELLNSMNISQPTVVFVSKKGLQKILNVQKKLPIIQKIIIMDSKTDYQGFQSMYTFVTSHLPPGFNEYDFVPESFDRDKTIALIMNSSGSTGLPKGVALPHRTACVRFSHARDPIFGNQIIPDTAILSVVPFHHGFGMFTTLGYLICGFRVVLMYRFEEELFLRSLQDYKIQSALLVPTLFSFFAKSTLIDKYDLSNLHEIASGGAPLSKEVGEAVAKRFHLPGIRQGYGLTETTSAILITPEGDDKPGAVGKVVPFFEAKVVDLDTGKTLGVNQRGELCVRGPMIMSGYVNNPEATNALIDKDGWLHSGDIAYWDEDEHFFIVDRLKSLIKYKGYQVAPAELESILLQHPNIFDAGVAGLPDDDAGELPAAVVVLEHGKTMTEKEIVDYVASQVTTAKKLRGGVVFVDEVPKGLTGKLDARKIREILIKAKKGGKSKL
# Sequence of Nucleotide-binding oligomerization domain-containing protein 2 (Q9HC29 whole entry, the tested form may be a part): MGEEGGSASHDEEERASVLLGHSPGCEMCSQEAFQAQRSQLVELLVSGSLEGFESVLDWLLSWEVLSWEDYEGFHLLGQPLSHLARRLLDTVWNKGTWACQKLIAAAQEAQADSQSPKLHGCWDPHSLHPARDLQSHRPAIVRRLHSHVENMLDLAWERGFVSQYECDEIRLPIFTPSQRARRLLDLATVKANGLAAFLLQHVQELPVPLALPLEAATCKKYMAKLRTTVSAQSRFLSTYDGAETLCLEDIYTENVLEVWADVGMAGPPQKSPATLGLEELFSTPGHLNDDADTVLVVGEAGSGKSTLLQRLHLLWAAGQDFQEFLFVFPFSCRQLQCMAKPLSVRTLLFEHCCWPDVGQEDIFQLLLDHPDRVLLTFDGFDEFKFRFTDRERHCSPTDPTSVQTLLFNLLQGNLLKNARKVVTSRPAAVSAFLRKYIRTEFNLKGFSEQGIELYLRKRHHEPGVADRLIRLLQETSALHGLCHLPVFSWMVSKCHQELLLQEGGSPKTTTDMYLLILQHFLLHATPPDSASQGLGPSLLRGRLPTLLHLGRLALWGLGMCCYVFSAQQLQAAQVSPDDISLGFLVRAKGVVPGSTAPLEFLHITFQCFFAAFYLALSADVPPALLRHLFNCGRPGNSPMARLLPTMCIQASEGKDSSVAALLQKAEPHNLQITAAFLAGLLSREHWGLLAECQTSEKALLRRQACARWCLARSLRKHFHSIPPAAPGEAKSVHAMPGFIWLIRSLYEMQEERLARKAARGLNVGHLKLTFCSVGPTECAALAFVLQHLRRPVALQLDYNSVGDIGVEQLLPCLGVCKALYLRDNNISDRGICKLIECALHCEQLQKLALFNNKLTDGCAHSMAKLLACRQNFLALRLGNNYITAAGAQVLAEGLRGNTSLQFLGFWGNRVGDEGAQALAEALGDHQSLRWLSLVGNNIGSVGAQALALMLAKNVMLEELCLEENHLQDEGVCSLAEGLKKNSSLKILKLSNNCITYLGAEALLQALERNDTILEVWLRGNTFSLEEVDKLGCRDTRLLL
# Sequence of Peroxisome proliferator-activated receptor gamma/Nuclear receptor coactivator 3 (P37231 whole entry): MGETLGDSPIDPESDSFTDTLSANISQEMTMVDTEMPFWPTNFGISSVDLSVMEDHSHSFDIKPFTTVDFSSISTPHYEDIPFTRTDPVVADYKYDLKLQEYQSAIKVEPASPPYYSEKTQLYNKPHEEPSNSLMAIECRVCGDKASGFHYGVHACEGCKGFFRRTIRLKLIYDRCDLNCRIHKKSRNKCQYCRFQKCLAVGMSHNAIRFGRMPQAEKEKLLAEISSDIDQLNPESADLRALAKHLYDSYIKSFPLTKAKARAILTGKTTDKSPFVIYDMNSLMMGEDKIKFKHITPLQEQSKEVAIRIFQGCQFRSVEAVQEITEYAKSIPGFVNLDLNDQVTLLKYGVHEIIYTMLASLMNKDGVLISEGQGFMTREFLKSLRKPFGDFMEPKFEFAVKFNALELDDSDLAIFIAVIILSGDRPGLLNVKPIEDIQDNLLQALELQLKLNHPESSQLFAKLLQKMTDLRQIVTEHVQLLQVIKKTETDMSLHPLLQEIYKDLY
# Sequence of Peroxisome proliferator-activated receptor gamma/Nuclear receptor coactivator 3 (Q9Y6Q9 whole entry, further chain): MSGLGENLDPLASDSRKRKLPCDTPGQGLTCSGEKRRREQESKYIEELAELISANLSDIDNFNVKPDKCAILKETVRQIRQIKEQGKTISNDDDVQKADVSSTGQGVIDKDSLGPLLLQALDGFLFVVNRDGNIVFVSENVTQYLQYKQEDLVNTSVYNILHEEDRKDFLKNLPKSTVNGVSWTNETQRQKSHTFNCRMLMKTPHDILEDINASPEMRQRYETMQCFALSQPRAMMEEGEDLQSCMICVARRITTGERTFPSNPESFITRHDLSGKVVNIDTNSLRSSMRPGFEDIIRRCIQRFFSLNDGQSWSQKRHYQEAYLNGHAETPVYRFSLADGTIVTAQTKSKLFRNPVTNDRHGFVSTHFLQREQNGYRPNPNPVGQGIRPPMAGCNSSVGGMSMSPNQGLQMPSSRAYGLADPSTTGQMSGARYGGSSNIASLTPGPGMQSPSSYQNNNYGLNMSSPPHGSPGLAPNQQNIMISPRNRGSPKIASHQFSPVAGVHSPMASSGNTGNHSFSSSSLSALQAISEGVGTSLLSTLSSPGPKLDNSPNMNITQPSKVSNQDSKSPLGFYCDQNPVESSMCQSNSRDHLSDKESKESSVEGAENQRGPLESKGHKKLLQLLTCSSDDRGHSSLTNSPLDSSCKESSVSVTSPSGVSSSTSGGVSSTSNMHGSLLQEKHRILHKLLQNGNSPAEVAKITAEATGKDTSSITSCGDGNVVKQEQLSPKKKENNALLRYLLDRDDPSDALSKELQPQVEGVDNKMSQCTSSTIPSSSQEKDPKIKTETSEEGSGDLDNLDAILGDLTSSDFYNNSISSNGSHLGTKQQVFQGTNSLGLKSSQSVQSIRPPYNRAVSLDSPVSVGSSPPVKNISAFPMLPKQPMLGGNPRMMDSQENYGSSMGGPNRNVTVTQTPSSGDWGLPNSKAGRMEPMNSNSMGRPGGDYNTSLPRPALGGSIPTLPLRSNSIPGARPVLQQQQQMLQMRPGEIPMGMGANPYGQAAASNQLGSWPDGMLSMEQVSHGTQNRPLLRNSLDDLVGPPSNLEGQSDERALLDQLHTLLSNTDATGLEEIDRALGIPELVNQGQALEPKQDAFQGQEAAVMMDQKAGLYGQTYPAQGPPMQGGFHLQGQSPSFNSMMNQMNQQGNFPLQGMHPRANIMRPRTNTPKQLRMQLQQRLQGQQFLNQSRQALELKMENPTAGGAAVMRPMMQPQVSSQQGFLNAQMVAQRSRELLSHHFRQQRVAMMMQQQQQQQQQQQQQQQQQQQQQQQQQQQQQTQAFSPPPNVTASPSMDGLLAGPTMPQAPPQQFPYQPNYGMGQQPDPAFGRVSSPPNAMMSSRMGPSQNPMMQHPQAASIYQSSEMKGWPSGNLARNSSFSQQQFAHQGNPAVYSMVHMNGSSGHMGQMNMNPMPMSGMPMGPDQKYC
smiles,measurement,setting,value
CC1(C)CC(N2CCCCCC2)=CC(=[N+]2CCCC2)C1,IC50,[1],> 35 µM (not active)
same,IC50,[2],> 20 µM (inactive)
same,EC50,[3],4.99 µM (active)
same,EC50,[4],> 150 µM (inactive)
same,EC50,[5],17.5 µM (active)
same,IC50,[6],8.01 µM (active)
same,IC50,[7],> 35 µM (not active)
same,IC50,[8],> 20 µM (inactive)
same,IC50,[9],16.4 µM (inactive)
CCOc1cccc(C(=O)Nc2nnc(-c3cccs3)s2)c1,EC50,[10],24.1 µM (not active)
same,EC50,[11],30.3 µM (not active)
same,EC50,[12],22.2 µM (not active)
N#C/C(=N\Nc1ccc(S(=O)(=O)N2CCc3ccccc32)cc1)C(N)=S,EC50,[13],40 µM (active)
same,EC50,[14],31.7 µM (active)
same,EC50,[15],14.5 µM (active)
same,EC50,[16],> 150 µM (not active)
same,AC50,[17],2.32 µM (active)
same,EC50,[18],> 100 µM (active)
CC(C)NC(=S)N/N=C/c1c[nH]c2ccccc12,CC50,[19],> 40 µM (active)
same,IC50,[20],> 100 µM (active)
COc1cc(/C=N/NC(N)=O)ccc1OCC(=O)Nc1ccc(C)c(C)c1,EC50,[21],11.4 µM (active)
same,EC50,[22],> 112 µM (not active)
same,IC50,[23],9.83 µM (active)
same,IC50,[24],> 35 µM (not active)
